Experimental data from ChEMBL document CHEMBL5126652, “Boron-Containing Pyrazole Compounds as JAK Inhibitors for Treating Inflammation, Autoimmune Diseases, and Cancer” (ACS Med Chem Lett, 2022).
pIC50: −log10 of the molar value.

Target: Tyrosine-protein kinase JAK1 (Homo sapiens, UniProt P23458)
Test: Inhibition of JAK1 (unknown origin) preincubated for 20 mins followed by 33P-ATP addition and measured after 2 hrs by filter binding assay

Chain of Tyrosine-protein kinase JAK1 (P23458 whole entry): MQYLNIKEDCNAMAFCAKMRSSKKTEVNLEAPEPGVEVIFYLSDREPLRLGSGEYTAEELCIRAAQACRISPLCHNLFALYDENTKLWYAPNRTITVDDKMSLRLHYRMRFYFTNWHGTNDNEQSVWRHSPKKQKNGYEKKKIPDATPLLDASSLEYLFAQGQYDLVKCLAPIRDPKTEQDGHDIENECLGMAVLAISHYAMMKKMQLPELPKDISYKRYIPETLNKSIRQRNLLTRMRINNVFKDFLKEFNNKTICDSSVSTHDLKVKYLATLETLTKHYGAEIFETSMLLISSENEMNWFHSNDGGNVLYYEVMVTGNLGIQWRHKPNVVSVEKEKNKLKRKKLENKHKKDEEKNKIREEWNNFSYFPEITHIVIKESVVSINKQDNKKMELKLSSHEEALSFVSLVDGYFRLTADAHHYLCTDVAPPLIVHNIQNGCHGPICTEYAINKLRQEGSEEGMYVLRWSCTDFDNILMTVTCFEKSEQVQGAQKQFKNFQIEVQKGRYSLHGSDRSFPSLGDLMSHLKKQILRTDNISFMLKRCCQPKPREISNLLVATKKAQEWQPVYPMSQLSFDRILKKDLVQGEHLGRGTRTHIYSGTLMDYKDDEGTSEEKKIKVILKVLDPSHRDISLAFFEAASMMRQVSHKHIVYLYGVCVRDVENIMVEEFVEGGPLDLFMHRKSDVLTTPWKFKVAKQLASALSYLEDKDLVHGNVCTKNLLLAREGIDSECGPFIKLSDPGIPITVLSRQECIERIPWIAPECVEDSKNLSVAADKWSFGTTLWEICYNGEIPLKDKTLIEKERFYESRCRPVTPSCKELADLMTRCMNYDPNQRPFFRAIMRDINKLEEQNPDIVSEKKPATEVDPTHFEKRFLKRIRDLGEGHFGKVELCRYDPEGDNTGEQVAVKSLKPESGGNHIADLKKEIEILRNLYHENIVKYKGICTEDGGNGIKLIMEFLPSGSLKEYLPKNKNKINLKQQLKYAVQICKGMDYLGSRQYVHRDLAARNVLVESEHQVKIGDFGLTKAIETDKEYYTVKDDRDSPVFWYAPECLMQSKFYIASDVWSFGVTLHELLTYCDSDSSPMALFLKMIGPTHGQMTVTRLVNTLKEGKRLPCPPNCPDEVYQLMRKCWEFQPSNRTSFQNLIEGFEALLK

pIC50 | Compound
> 8.00 | N#CC1CCOCC1n1cc(C(N)=O)c(Nc2cc(Cl)c3c(c2)COB3O)n1 (stereo unspecified)
> 8.00 | N#CC1CCCC1n1cc(C(N)=O)c(Nc2ccc3c(c2)COB3O)n1 (stereo unspecified)
> 8.00 | N#CC1CCOCC1n1cc(C(N)=O)c(Nc2ccc3c(c2)C2CC2B(O)O3)n1 (stereo unspecified)
> 8.00 | N#CC1CCCC1n1cc(C(N)=O)c(Nc2ccc3c(c2)C=CB(O)O3)n1 (stereo unspecified)
> 8.00 | N#CC1CCOCC1n1cc(C(N)=O)c(Nc2ccc3c(c2)C(Cl)=CB(O)O3)n1 (stereo unspecified)
> 8.00 | N#CC1CCOCC1n1cc(C(N)=O)c(Nc2cc(F)c3c(c2)COB3O)n1 (stereo unspecified)
